The text below walks through data of patent publication US11345673B2, “1-phenylpropanone compounds and use thereof” (UNIVERSITA' DEGLI STUDI DI PADOVA, priority 2016, dated 2022).

Each structure is given as a SMILES string.

In data set [1] the test system is hepatocarcinoma (HepG2) cells. As to the kind of experiment: Proapoptotic effect by flow cytofluorometry, HepG2 cells. It counts as cell-based. The note with it: Homo sapiens, 24 hours incubation, three experiments in triplicate, read-out: IC50 ± S.D. (concentration required to cause 50% apoptosis), HepG2. The source says: (§1) Flow cytofluorometry was used to evaluate the ability of some compounds of the invention to induce cell death, with particular reference to apoptosis. This latter phenomenon is characterized by morphological modification of the plasmatic membrane as a result of the translocation of the phospholipid phosphatidylserine (PS) in the plasmatic membrane from the cytoplasmic side to the outer surface of the cell. […] Annexin is detected because it is conjugated to a specific fluorochrome, thus allowing to distinguish apoptosis from necrotic phenomena, which are instead measured by the fluorescent dye propidium iodide, which penetrates freely in the cell having a damaged plasmatic membrane.
(§2) Both primary lymphocytic tumor cells taken from patients with chronic lymphatic leukemia (LLC) and humanized cell lines of neuroblastoma (SK-N-BE), hepatocarcinoma (HepG2 and HUH7.5) and breast cancer (MDA-MB-231) were used.
(§3) HepG2 (2×10^5 cells per well), HUH7.5 and MDA-MB-231 (1.5×10^5 cells per well) cells were seeded on a 6-well plate in Dulbecco's Modified Eagle Medium (DMEM), 10% FBS and cultured at 37° C. in a 5% CO2 atmosphere. After 24 hours, the medium was removed and replaced by DMEM containing the test compounds, previously dissolved in 100% dimethylsulfoxide, and diluted such that the final concentration of the same in cell incubation solutions was 0.5% (v/v). After 30 minutes incubation, 10% FBS was added, and the cells were incubated for 24 hours, then detached with trypsin, and analyzed by cytofluorimeter. LLC cells (1×10^6 cells per well) were seeded and cultured on 12-well plates in RPMI-1640 medium, 10% FBS, at 37° C. in a humified atmosphere containing 5% CO2. To this medium, test compounds were added, and incubation was carried out for 24 hours, after which time the cells were analyzed by cytofluorimeter.
(§4) The results obtained by cytofluorometry from three separate experiments executed in triplicate were tabulated, estimating the concentration required to cause 50% apoptosis (IC50), and standard deviation.

In data set [2] the test system is hepatocarcinoma (HUH7.5) cells. As to the kind of experiment: Proapoptotic effect by flow cytofluorometry, HUH7.5 cells. It counts as cell-based. Conditions: Homo sapiens, 24 hours incubation, three experiments in triplicate, read-out: IC50 ± S.D. (concentration required to cause 50% apoptosis), HUH7.5.
Source text: as §1, §2, §3, §4

Data set [3] deals with primary lymphocytic tumor cells taken from patients with chronic lymphatic leukemia (LLC). As to the kind of experiment: Proapoptotic effect by annexin V/propidium iodide flow cytofluorometry, LLC cells. Conditions: Homo sapiens, 24 hours incubation, three experiments in triplicate, read-out: IC50 ± S.D. (concentration required to cause 50% apoptosis), LLC. Type of data set: cell-based.
Source text: as §1, §2, §3
Leukemic lymphocytes were isolated, following heparinized venous withdrawal from peripheral blood of LLC patients, diluted with saline in a 1:3 ratio, layered on a Ficoll/Hypaque (F/H) density gradient, centrifuged at 900 rpm for 20 minutes, at 20° C. without brakes. Mononuclear cells and platelets, concentrating on top of the F/H gradient, were separated after 2 further washings, with centrifugation at 400 rpm at room temperature. The mononuclear cells thus obtained were washed 3 times with PBS, centrifuged for 10 minutes at 400 rpm, at 20° C. with brakes, and resuspended in RPMI 1640.
In most LLC cases, the percentage of leukemic B cells was higher than 85% with respect to all mononuclear cells from peripheral blood.
as §4

Data set [4] relates to breast cancer (MDA-MB-231) cells. As to the kind of experiment: Proapoptotic effect by flow cytofluorometry, MDA-MB-231 cells. It counts as cell-based. Conditions: Homo sapiens, 24 hours incubation, three experiments in triplicate, read-out: IC50 ± S.D. (concentration required to cause 50% apoptosis), MDA-MB-231.
Source text: as §1, §2, §3, §4

For data set [5], the system named is neuroblastoma (SK-N-BE) cells. Kind of data set: Proapoptotic effect by flow cytofluorometry, SK-N-BE cells. Conditions: Homo sapiens, three experiments in triplicate, read-out: IC50 ± S.D. (concentration required to cause 50% apoptosis), SK-N-BE. Type of data set: cell-based.
Source text: as §1
Both primary lymphocytic tumor cells taken from patients with chronic lymphatic leukemia (LLC) and humanized cell lines of neuroblastoma (SK-N-BE), hepatocarcinoma (HepG2 and HUH7.5) and breast cancer (MDA-MB-231) were used. […]
as §4

For data set [6], the system named is S1P1 receptor. As to the kind of experiment: Immunosuppressive effect: Western blot of S1P1 receptor in LLC cells. It counts as cell-based, human. The note with it: incubation for discrete times (3 hours, 12 hours). For orientation: In western blotting, separated proteins are transferred to a membrane and probed.
Method: To this end, LLC cells (5×10^5 per well) were seeded and cultured on 12-well plates in RPMI-1640 medium, 10% FBS, at 37° C. in a humidified atmosphere containing 5% CO2, adding to the culture the various test compounds. Incubation was conducted for discrete times, at the end of which the cells were lysed to submit the protein content to Western blot analysis with antibodies that specifically recognize the S1P1 receptor.
Data set [7] deals with breast cancer and multiple myeloma cells. The note with it: cited from earlier work.

For `CCCCCC[Se]c1ccc(C(=O)CCN2CCN(C)CC2)cc1` [Compound 22, 1-(4-(hexylselenyl)phenyl)-3-(4-methylpiperazin-1-yl)propan-1-one], the IC50 in data set [1] is 8100 ± 100 nM; in data set [2] it was 8000 ± 60 nM; in data set [3], 8150 ± 70 nM; in data set [4] it was 8100 ± 70 nM; in data set [5], 8200 ± 70 nM.

As for `CCCCCCC[Se]c1ccc(C(=O)CCN2CCN(C)CC2)cc1` [Compound 23, 1-(4-(heptylselenyl)phenyl)-3-(4-methylpiperazin-1-yl)propan-1-one], the IC50 in data set [1] amounted to 1700 ± 50 nM; in data set [2], 1690 ± 80 nM; in data set [3], 1770 ± 50 nM; in data set [4], 1700 ± 90 nM; in data set [5], 1750 ± 90 nM.

As for `CCCCCCCc1ccc(C(=O)CCN2CCOCC2)cc1` [Compound 24, 1-(4-heptylphenyl)-3-morpholinopropan-1-one], the IC50 in data set [1] is 500 ± 80 nM; in data set [2], 500 ± 65 nM; in data set [3], 500 ± 150 nM; in data set [4] it was 550 ± 80 nM; in data set [5], 500 ± 170 nM.

As to `CCCCCCCc1ccc(C(=O)CCN2CCCCC2)cc1` [Compound 25, 1-(4-heptylphenyl)-3-(piperidin-1-yl)propan-1-one], the IC50 was 1550 ± 90 nM in data set [1]; 1500 ± 100 nM in data set [2]; 1500 ± 80 nM in data set [3]; 1650 ± 750 nM in data set [4]; 1600 ± 100 nM in data set [5].

For `CCCCCCCc1ccc(C(=O)CCN2CCN(C)CC2)cc1` [Compound 26, 1-(4-heptylphenyl)-3-(4-methylpiperazin-1-yl)propan-1-one], the IC50 was determined as 800 ± 70 nM in data set [1]; 950 ± 60 nM in data set [2]; 850 ± 60 nM in data set [3]; 900 ± 50 nM in data set [4]; 750 ± 130 nM in data set [5].

On to `CCCCCCCCc1ccc(CCC(N)(CO)CO)cc1.Cl` [FTY720, 2-amino-2[2-(4-octylphenyl)ethyl]propane-1,3-diol hydrochloride], for which the “S1P1 receptor expression (Western blot, FIG. 1)” value in data set [6] was “induces a rapid decrease of S1P1 receptor”.

Consider `CCCCOc1ccc(C(=O)CCN2CCCCC2)cc1` [dyclonine], for which, in data set [7] (breast cancer and multiple myeloma cells, articles of D. Ju et al., read-out: induction of caspase-dependent apoptosis (IC50 values)), the IC50 is 15000 to 30000 nM. For the same compound, the “cytotoxic effects of dyclonine alone” value in data set [7] (in vitro, alone without MG132 or bortezomib) was “very limited cytotoxic effects”.
